In a melting point compilation (Tetko et al.; mined from patent text by program, amines drawn as free bases though some values may be those of a salt):

| melting point [°C] | SMILES |
| --- | --- |
| 262 | CC12C=CC(=O)C=C1CCC1C3CC4OCOC4(C(=O)CO)C3(C)CC(O)C12F (stereo not given) |
| 192 to 194 | O=Cc1cccc(-c2cc3c4c(ccn4C(=O)CNC3)c2)c1 |
| 212 | COc1c(C2CCN(CCCCNC(=O)c3sc(-c4ccc(C#N)cc4)nc3CO)CC2)ccc2c1CCCC2 |
| 179 to 180 | CC(=O)c1ccc(-n2c(C)ccc2-c2ccc(S(C)(=O)=O)cc2)cc1 |
| 262 to 263 | COc1cc2cc(C(=O)OC(C)(C)C)c(N)cc2cc1O |
| 64.5 | CC12NCCCN1C(=O)c1ccccc12 (stereo not given) |
| 237 to 239 | Cc1ccc2nc(-c3ccc([N+](=O)[O-])cc3)cn2c1 |
| 114 to 116 | O=S(CCCCCOc1ccc(C2=C(c3ccccc3)CCCc3ccccc32)cc1)CCCC(F)(F)C(F)(F)F (stereo not given) |
| 180 to 181 | O=C(Nc1ccccc1)OCC1c2ccccc2Oc2ccccc21 |
| 221 to 222 | COC(=O)c1ccc(C(=O)Nc2cc3c4c(c2)CCCC4CCC3)s1 |
| 148 | CCCc1nc2c(C(F)(F)F)cccc2c(O)c1C(=O)O |
| 337 to 340 | O=C(O)c1cc(F)c(F)cc1NC(=O)c1cc(-c2ccc(Cl)cc2)oc1C(F)(F)F |
| 137 to 139 | CC(C)CCOc1c(-c2ccc(S(N)(=O)=O)cc2)cnn(-c2cccc(Cl)c2)c1=O |
| 102 to 108 | COC(=O)c1nn(-c2cccnc2)cc1N |
| 169 to 172 | CCCc1nc2c(N)nc3cc(-c4cccc(C(=O)N(CC)CC)c4)ccc3c2s1 |
| 184 to 186 | CCCCNC(=O)NS(=O)(=O)c1c(Cl)cccc1-c1ccccc1 |
| > 260 | N=C(N)c1ccc(-c2ccc(Nc3ccc(CCC(=O)O)cc3)nn2)cc1 |
| 118 to 119 | CC1(c2ccccc2)SC(=S)N(Nc2ccccc2)C1=N (stereo not given) |
| 216 to 217 | CC=CC(=O)Nc1c(C(O)(C(F)(F)F)C(F)(F)F)ccc2ccccc12 |

| melting point [°C] | SMILES |
| --- | --- |
| 187 to 189 | CN(C)C1CCCN(C(=O)c2ccc(NC(=O)Cc3ccccc3Cl)cc2)c2ccccc21 (stereo not given) |
| 77 to 78 | CCCCCCCCCCCCCCCCSCC(CO)n1nnnc1C (stereo not given) |
| 108 to 109 | Clc1ccc(-c2nc(-c3ccccc3)sc2CBr)cc1 |
| 152 to 153 | Nc1ccc(OCCCOc2ccc(N)cc2[N+](=O)[O-])c([N+](=O)[O-])c1 |
| > 250 | Nc1nc(N)nc(-c2cnc3ccccc3c2)n1 |
| 102 to 103 | CCC(=O)c1c(C)cc(NC(C)(C)C)nc1NC(C)(C)C |
| > 300 | C[Si](C)(C)c1cc(C(=O)O)cc([Si](C)(C)C)c1 |
| 278 to 281 | CCOC(=O)C(=C1SC(=S)N(CC(=O)O)C1=O)c1csc(NC(=O)c2ccccc2)n1 |
| 220 to 223 | CC(=O)N1CCc2cc(S(=O)(=O)n3c(CCC(=O)O)cc4cc(Cl)ccc43)ccc21 |
| 96 | Cc1ccc2c(NCc3ccc(NC(=O)C4CCN(Cc5ccccc5)CC4)cc3)nc(N3CCCC3)nc2c1 |
| 70 to 71 | Cc1scc(CO)c1N |
| 310 to 315 | Cc1nc2cc3c(cc2n1C)C(=O)OC3=O |
| 80 to 82 | CCN(CC)CCNC(=O)c1cccc2cc3ccc(I)cc3nc12 |
| 46.5 to 47.5 | CCOC(=O)c1c(C)nn(-c2cccc(C)c2)c1C |
| 109 | NC(=O)c1cccc(CCCBr)c1 |
| 191 to 192 | O=C1OC(CCOc2ccc3oc4ccccc4c3c2)C(O)=C1O (stereo not given) |
| 146 to 147 | COc1ccc2[nH]c(C(=O)OC(C)(C)C)c(N)c2c1 |
| 240 | CC(C(=O)O)c1ccc2nc3ccc(S(C)(=O)=O)cn3c(=O)c2c1 (stereo not given) |
| 300 to 307 | CC[Si](C#Cc1c2ccccc2c2ccc3c(C#C[Si](CC)(CC)CC)c4ccccc4c4ccc1c2c34)(CC)CC |

| SMILES | melting point [°C] |
| --- | --- |
| C#CCN(C(=O)C(Cl)Cl)C(C)C | 58 to 59 |
| CCCS(=O)(=O)Nc1c(C)cc(OC(=O)NC)cc1C | 173 to 176 |
